For series [1], the target named is PDF enzyme (Escherichia coli, UniProt P0A6K3). The series is described as follows: PDF/FDH coupled enzyme assay, E. coli. The format is biochemical. The procedure:
Activities of PDF enzyme for E. coli and S. aureus were determined using PDF/FDH coupled assay. In this coupled assay, the formate released by PDF from its substrate formyl-Methionine-Alanine-Serine (fMAS) is oxidized by coupling enzyme formate dehydrogenase (FDH), reducing one molecule of NAD^+ to NADH, which is measured absorption at 340 nm.

Series [2] concerns the target PDF enzyme (Streptococcus pyogenes serotype M1, UniProt P68771). Put plainly: PDF/FDH coupled enzyme assay, Streptococcus pyogenes. The format is biochemical.
In series [3] the target is T1, PDF enzyme (Streptococcus pneumoniae serotype 4, UniProt Q9F2F0).
T1 sequence (Q9F2F0 1-203): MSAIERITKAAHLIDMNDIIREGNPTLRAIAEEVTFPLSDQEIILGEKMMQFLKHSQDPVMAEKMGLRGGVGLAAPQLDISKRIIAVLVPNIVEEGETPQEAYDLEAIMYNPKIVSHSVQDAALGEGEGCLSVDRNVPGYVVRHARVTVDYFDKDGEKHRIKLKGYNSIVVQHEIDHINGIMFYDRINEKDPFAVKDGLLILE
Put plainly: PDF/FDH coupled enzyme assay, Streptococcus Pneumoniae. It is filed as biochemical. Conditions: substrate fMAS, absorption at 340 nm.

In series [4] the test system is Vancomycin-resistant Enterococcus faecalis. Put plainly: MIC microdilution, VR E. faecalis. It is filed as cell-based. Conditions: read-out: MIC Vancomycin-resistant Enterococcus faecalis. The procedure:
(§1) Minimum inhibitory concentrations (MICs) were determined using the microdilution method in 96-well format plates. Each of the compounds of Examples was dissolved in dimethyl sulfoxide to a concentration of 2 mg/mL and stored at 4° C. until used. They were diluted in Mueller-Hinton Broth (MHB) and used for MIC determination. The range of concentrations tested was […] final concentration using a two-fold dilution system. Plates were incubated at 37° C. and MIC were recorded after 24 hours of incubation for bacteria.
(§2) Linezolid and vancomycin were used as standard antibiotics, respectively.

The test system of series [5] is Streptococcus Pneumoniae Pen S. The series is described as follows: MIC microdilution, S. Pneumoniae Pen S. It is filed as cell-based. Conditions: read-out: MIC Streptococcus Pneumoniae Pen S. The procedure:
as §1, §2

In series [6] the test system is Vancomycin-resistant Enterococcus faecium. The series is described as follows: MIC microdilution, VR E. faecium. The format is cell-based. Conditions: read-out: MIC Vancomycin-resistant Enterococcus faecium. The procedure:
as §1, §2

Series [7] has as its system Streptococcus Pneumoniae Pen NS. The series is described as follows: MIC microdilution, S. Pneumoniae Pen NS. The format is cell-based. Conditions: read-out: MIC Streptococcus Pneumoniae Pen NS. The procedure: as §1, §2
In another series the test system is Streptococcus pyogenes. The series is described as follows: MIC microdilution, S. pyogenes. It is filed as cell-based. Conditions: read-out: MIC Streptococcus pyogenes. The procedure:
as §1, §2

Series [8] in a line: Acute toxicity study in mice. Conditions: mouse, in vivo, po, 4000 mg/kg; ICR mice, orally, observed for 14 days. The procedure:
The acute toxicity of the compounds of Example 5, 17 and 22 were tested using several groups of ICR mice each of 6 mice.

Setting [9] is: microdilution, Mueller-Hinton Broth, 37° C., 24 hours.
Setting [10] is: PDF/FDH coupled assay, substrate fMAS, absorption at 340 nm, read-out: IC50 Escherichia coli.
The mark [11] stands for this setting: PDF/FDH coupled assay, substrate fMAS, absorption at 340 nm, read-out: IC50 Streptococcus pyogenes.

This passage reports IC50, MIC and LD50 results from US20100168421A1, “A NEW PEPTIDE DEFORMYLASE INHIBITOR COMPOUND AND MANUFACTURING PROCESS THEREOF” (priority 2007, published 2010).

The structures appear in SMILES notation. In brackets after ≈: the same amount, converted by molar mass. Where two headings read alike, the source gives them in different places. Where only a bound is given, the exact number is not on record here.

Sequence of PDF enzyme (Escherichia coli, UniProt P0A6K3) (P0A6K3 whole entry): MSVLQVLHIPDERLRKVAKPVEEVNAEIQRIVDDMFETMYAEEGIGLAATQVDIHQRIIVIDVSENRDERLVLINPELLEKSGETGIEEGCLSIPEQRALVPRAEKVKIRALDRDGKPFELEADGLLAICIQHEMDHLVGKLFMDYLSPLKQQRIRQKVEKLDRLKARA
Sequence of PDF enzyme (Streptococcus pyogenes serotype M1, UniProt P68771) (P68771 whole entry): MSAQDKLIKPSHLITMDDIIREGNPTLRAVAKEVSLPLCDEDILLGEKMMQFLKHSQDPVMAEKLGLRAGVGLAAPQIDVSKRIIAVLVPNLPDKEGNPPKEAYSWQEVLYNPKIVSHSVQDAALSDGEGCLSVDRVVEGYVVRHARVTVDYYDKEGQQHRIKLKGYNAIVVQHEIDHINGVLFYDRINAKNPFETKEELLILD

For `Cc1ccc(CNC2CCN(C(=O)[C@@H](NC(=O)[C@@H](CC(=O)NO)CC3CCCC3)C(C)(C)C)CC2)cc1` [Example 1, (R)-2-Cyclopentylmethyl-N^1-{(S)-2,2-dimethyl-1-[4-(4-methyl-benzylamino)-piperidine-1-carbonyl]-propyl}-N^4-hydroxy-succinamide], the results for the concentration for half-maximal inhibition (IC50) against PDF enzyme [1], against PDF enzyme [2] and at PDF enzyme [3] were 150 nM, 70 nM and 65 nM, respectively.

With `Cc1ccc(CNC2CCN(C(=O)[C@@H](NC(=O)[C@H](CC3CCCC3)CN(O)C=O)C(C)(C)C)CC2)cc1` [Example 2, (R)-2-Cyclopentylmethyl-N-{(S)-2,2-dimethyl-1-[4-(4-methyl-benzylamino)-piperidine-1-carbonyl]-propyl}-3-(formyl-hydroxy-amino)-propionamide], the MIC came out at 3.1 µg/mL (≈ 6.02 µM) in series [4] (setting [9]); 0.1 µg/mL (≈ 0.194 µM) in series [5] (setting [9]); 0.4 µg/mL (≈ 0.777 µM) in series [6] (setting [9]); 0.4 µg/mL (≈ 0.777 µM) in [7] (setting [9]); 0.2 µg/mL (≈ 0.389 µM) in the series on Streptococcus pyogenes (setting [9]). Further, the IC50 stood at 132 nM at PDF enzyme [1] (setting [10]), 86 nM at PDF enzyme [2] (setting [11]) and 77 nM against PDF enzyme [3].

Take `COc1ccc(CNC2CCN(C(=O)[C@@H](NC(=O)[C@H](CC3CCCC3)CN(O)C=O)C(C)(C)C)CC2)cc1` [Example 5, (R)-2-Cyclopentylmethyl-3-(formyl-hydroxy-amino)-N-{(S)-1-[4-(4-methoxy-benzylamino)-piperidine-1-carbonyl]-2,2-dimethyl-propyl}-propionamide]: the MIC was 6.3 µg/mL (≈ 11.9 µM) in series [4] (setting [9]); 0.2 µg/mL (≈ 0.377 µM) in series [5] (setting [9]); 1.6 µg/mL (≈ 3.01 µM) in [6] (setting [9]); 0.8 µg/mL (≈ 1.51 µM) in series [7] (setting [9]); 0.4 µg/mL (≈ 0.754 µM) in the series on Streptococcus pyogenes (setting [9]). In addition, the LD50 at 14 days in [8] is above 2000 mg/kg.

As for `CC(C)(C)[C@H](NC(=O)[C@H](CC1CCCC1)CN(O)C=O)C(=O)N1CCC(NCc2ccc(O)cc2)CC1` [Example 6, (R)-2-Cyclopentylmethyl-3-(formyl-hydroxy-amino)-N-{(S)-1-[4-(4-hydroxy-benzylamino)-piperidine-1-carbonyl]-2,2-dimethyl-formyl}-propionamide], the MIC is above 50 µg/mL in [4] (setting [9]); 0.8 µg/mL (≈ 1.55 µM) in series [5] (setting [9]); 50 µg/mL (≈ 96.8 µM) in [6] (setting [9]); 3.1 µg/mL (≈ 6 µM) in [7] (setting [9]); 0.8 µg/mL (≈ 1.55 µM) in the series with Streptococcus pyogenes (setting [9]). Also, the IC50 at PDF enzyme [1] (setting [10]) was 102 nM; at PDF enzyme [2] (setting [11]) it was 84 nM; at PDF enzyme [3], 42 nM.

`CC(C)(C)[C@H](NC(=O)[C@H](CC1CCCC1)CN(O)C=O)C(=O)N1CCC(NCc2ccc(F)cc2F)CC1` [Example 10, (R)-2-Cyclopentylmethyl-N-{(S)-1-[4-(2,4-difluoro-benzylamino)-piperidine-1-carbonyl]-2,2-dimethyl-propyl}-3-(formyl-hydroxy-amino)-propionamide]: the IC50 against PDF enzyme [1] came out at 122 nM; at PDF enzyme [2], 83 nM; on PDF enzyme [3], 55 nM.

For `CC(C)(C)[C@H](NC(=O)[C@H](CC1CCCC1)CN(O)C=O)C(=O)N1CCC(NCc2ccc(O)c(O)c2)CC1` [Example 13, (R)-2-Cyclopentylmethyl-N-{(S)-1-[4-(3,4-dihydroxy-benzylamino)-piperidine-1-carbonyl]-2,2-dimethyl-propyl}-3-(formyl-hydroxy-amino)-propionamide], the IC50 turned out to be 133 nM against PDF enzyme [1], 88 nM against PDF enzyme [2] and 46 nM on PDF enzyme [3].

With `CC(C)(C)[C@H](NC(=O)[C@H](CC1CCCC1)CN(O)C=O)C(=O)N1CCC(Nc2ccc(F)cc2)CC1` [Example 17, (R)-2-Cyclopentylmethyl-N-{(S)-1-[4-(4-fluoro-phenylamino)-piperidine-1-carbonyl]-2,2-dimethyl-propyl}-3-(formyl-hydroxy-amino)-propionamide], the MIC was determined as 3.1 µg/mL (≈ 6.14 µM) in series [4] (24 h); 0.2 µg/mL (≈ 0.396 µM) in series [5] (24 h); 0.4 µg/mL (≈ 0.793 µM) in series [6] (24 h); 0.8 µg/mL (≈ 1.59 µM) in [7] (24 h); 0.2 µg/mL (≈ 0.396 µM) with Streptococcus pyogenes (24 h). This compound also registered an LD50 at 14 days in [8] above 2000 mg/kg.

For `CC(C)(C)[C@H](NC(=O)[C@H](CC1CCCC1)CN(O)C=O)C(=O)N1CCC(Nc2ccc(O)cc2)CC1` [Example 20, (R)-2-Cyclopentylmethyl-3-(formyl-hydroxy-amino)-N-{(S)-1-[4-(4-hydroxy-phenylamino)-piperidine-1-carbonyl]-2,2-dimethyl-formyl}-propionamide], the MIC in series [4] (setting [9]) amounted to 25 µg/mL (≈ 49.7 µM); in series [5] (setting [9]), 0.8 µg/mL (≈ 1.59 µM); in series [6] (setting [9]), 25 µg/mL (≈ 49.7 µM); in series [7] (setting [9]) it was 3.1 µg/mL (≈ 6.17 µM); in the series with Streptococcus pyogenes (setting [9]), 1.6 µg/mL (≈ 3.18 µM). Besides, the 50% inhibitory concentration (IC50) amounted to 102 nM at PDF enzyme [1] (setting [10]), 61 nM at PDF enzyme [2] (setting [11]) and 63 nM against PDF enzyme [3].

Take `CC(C)(C)[C@H](NC(=O)[C@H](CC1CCCC1)CN(O)C=O)C(=O)N1CCC(Nc2ccc(N3CCOCC3)c(F)c2)CC1` [Example 25, (R)-2-Cyclopentylmethyl-N-{(S)-1-[4-(3-fluoro-4-morpholin-4-yl-phenylamino)-piperidine-1-carbonyl]-2,2-dimethyl-propyl}-3-(formyl-hydroxy-amino)-propionamide]: the MIC in [4] (setting [9]) came out at 12.5 µg/mL (≈ 21.2 µM); in series [5] (setting [9]), 0.4 µg/mL (≈ 0.678 µM); in [6] (setting [9]) it was 3.1 µg/mL (≈ 5.26 µM); in [7] (setting [9]) it was 1.6 µg/mL (≈ 2.71 µM); in the series on Streptococcus pyogenes (setting [9]), 0.8 µg/mL (≈ 1.36 µM).

Regarding `CC(C)(C)[C@H](NC(=O)[C@H](CC1CCCC1)CN(O)C=O)C(=O)N1CCC(NCc2ccco2)CC1` [Example 27, (R)-2-Cyclopentylmethyl-3-(formyl-hydroxy-amino)-N-((S)-1-{4-[(furan-2-ylmethyl)-amino]-piperidine-1-carbonyl}-2,2-dimethyl-propyl)-propionamide], the IC50 at PDF enzyme [1] came out at 117 nM; against PDF enzyme [2], 63 nM; against PDF enzyme [3] it was 42 nM.

`COc1coc(CNC2CCN(C(=O)[C@@H](NC(=O)[C@H](CC3CCCC3)CN(O)C=O)C(C)(C)C)CC2)cc1=O` [Example 29, (R)-2-Cyclopentylmethyl-3-(formyl-hydroxy-amino)-N-((S)-1-{4-[(5-methoxy-4-oxo-4H-pyran-2-ylmethyl)-amino]-piperidine-1-carbonyl}-2,2-dimethyl-propyl)-propionamide]: the results for the IC50 at PDF enzyme [1], against PDF enzyme [2] and against PDF enzyme [3] were 155 nM, 54 nM and 43 nM, respectively.

In the case of `CC(C)(C)[C@H](NC(=O)[C@H](CC1CCCC1)CN(O)C=O)C(=O)N1CCC(NCc2cc(=O)c(O)co2)CC1` [Example 30, (R)-2-Cyclopentylmethyl-3-(formyl-hydroxy-amino)-N-((S)-1-{4-[(5-hydroxy-4-oxo-4H-pyran-2-ylmethyl)-amino]-piperidin-1-carbonyl}-2,2-dimethyl-propyl)-propionamide], the values for the IC50 against PDF enzyme [1], on PDF enzyme [2] and against PDF enzyme [3] were 160 nM, 62 nM and 50 nM, respectively.

In the case of `CC(=O)NC[C@H]1CN(c2ccc(N3CCOCC3)c(F)c2)C(=O)O1` [Linezolid, reference compound], the MIC in series [4] (setting [9]) amounted to 0.8 µg/mL (≈ 2.37 µM); in series [5] (setting [9]) it was 0.8 µg/mL (≈ 2.37 µM); in [6] (setting [9]), 1.6 µg/mL (≈ 4.74 µM); in [7] (setting [9]) it was 0.8 µg/mL (≈ 2.37 µM); in the series on Streptococcus pyogenes (setting [9]) it was 0.8 µg/mL (≈ 2.37 µM).

For `CN[C@H](CC(C)C)C(=O)N[C@H]1C(=O)N[C@@H](CC(N)=O)C(=O)N[C@H]2C(=O)N[C@H]3C(=O)N[C@H](C(=O)N[C@H](C(=O)O)c4cc(O)cc(O)c4-c4cc3ccc4O)[C@H](O)c3ccc(c(Cl)c3)Oc3cc2cc(c3O[C@@H]2O[C@H](CO)[C@@H](O)[C@H](O)[C@H]2O[C@H]2C[C@](C)(N)[C@H](O)[C@H](C)O2)Oc2ccc(cc2Cl)[C@H]1O` [Vancomycin, reference compound], the MIC in series [4] (24 h) is above 50 µg/mL; in series [5] (24 h), 0.2 µg/mL (≈ 0.138 µM); in series [6] (24 h) it was above 50 µg/mL; in [7] (24 h), 0.4 µg/mL (≈ 0.276 µM); with Streptococcus pyogenes (24 h), 0.4 µg/mL (≈ 0.276 µM).
